Test results reported in patent US6809065B2, “Herbicide containing substituted pyrazole derivative as active ingredient” (SDS Biotech K.K., priority 2001, dated 2004).

Legend:
Chenopodium album [1] = test: Upland field foliage treatment (Test Example 1); type: in vivo; details: foliage treatment 14th day after sowing, wettable powder, 1 kg active ingredient per hectare, evaluated 21st day after application
Method in brief: (§1)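 Foliar spray, 1 kg a.i./ha, wettable powder in water, applied 14 d post-sowing; seeds covered by ~1 cm upland soil. Index scoring at 21 d. Higher index = stronger weed control; for crops, lower index = greater safety.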

Digitaria adscendens [2] = test: Upland field foliage treatment (Test Example 1); type: in vivo; details: foliage treatment 14th day after sowing, wettable powder, 1 kg active ingredient per hectare, evaluated 21st day after application
Method in brief: as §1

Setaria viridis [3] = test: Upland field foliage treatment (Test Example 1); type: in vivo; details: foliage treatment 14th day after sowing, wettable powder, 1 kg active ingredient per hectare, evaluated 21st day after application
Method in brief: as §1

Stellaria media [4] = test: Upland field foliage treatment (Test Example 1); type: in vivo; details: foliage treatment 14th day after sowing, wettable powder, 1 kg active ingredient per hectare, evaluated 21st day after application
Method in brief: as §1

soybean (Glycine max) [5] = test: Upland field foliage treatment (Test Example 1), crop; type: in vivo; details: foliage treatment 14th day after sowing, 1 kg active ingredient per hectare, evaluated 21st day, lower index = higher safety
Method in brief: as §1

[6] = tested on: wheat (Triticum aestivum); test: as above; type: in vivo; details: foliage treatment 14th day after sowing, 1 kg active ingredient per hectare, evaluated 21st day, lower index = higher safety
Method in brief: as §1

Chenopodium album [7] = test: Upland soil treatment (Test Example 2); type: in vivo; details: soil surface treatment next day after sowing, wettable powder, 1 kg active ingredient per hectare, evaluated 21st day after application
Method in brief: (§2)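 Pre-emergence soil treatment: day after sowing, WP formulation diluted in water, applied uniformly to soil surface at 1 kg a.i./ha. Seeds sown ~1 cm deep in upland soil. Visual index read 21 d after application (weeds: high = effective; crop: low = safe).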

Digitaria adscendens [8] = test: Upland soil treatment (Test Example 2); type: in vivo; details: soil surface treatment next day after sowing, wettable powder, 1 kg active ingredient per hectare, evaluated 21st day after application
Method in brief: as §2

Setaria viridis [9] = test: Upland soil treatment (Test Example 2); type: in vivo; details: soil surface treatment next day after sowing, wettable powder, 1 kg active ingredient per hectare, evaluated 21st day after application
Method in brief: as §2

Stellaria media [10] = test: Upland soil treatment (Test Example 2); type: in vivo; details: soil surface treatment next day after sowing, wettable powder, 1 kg active ingredient per hectare, evaluated 21st day after application
Method in brief: as §2

soybean (Glycine max) [11] = test: Upland soil treatment (Test Example 2), crop; type: in vivo; details: soil surface treatment next day after sowing, 1 kg active ingredient per hectare, evaluated 21st day, lower index = higher safety
Method in brief: as §2

[12] = tested on: wheat (Triticum aestivum); test: Upland soil treatment (Test Example 2), crop; type: in vivo; details: soil surface treatment next day after sowing, 1 kg active ingredient per hectare, evaluated 21st day, lower index = higher safety
Method in brief: as §2

Echinochloa spp. = test: Paddy field treatment (Test Example 3); type: in vivo, Echinochloa crusgalli; details: paddy pot, submerged 4 cm, dropped on water surface 10th day after transplantation, 1 kg active ingredient per hectare, evaluated 21st day
Method in brief: (§3)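 Paddy soil in pots was puddled and flooded to 4 cm, weeds were sown, and two-leaf Koshihikari rice was transplanted at 3 cm depth. Ten days after transplanting, wettable powder was applied onto the water surface at 1 kg active ingredient per hectare. Herbicidal effect was index-scored 21 days later.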

Ammannia multiflora = test: Paddy field treatment (Test Example 3); type: in vivo; details: paddy pot, submerged 4 cm, dropped on water surface 10th day after transplantation, 1 kg active ingredient per hectare, evaluated 21st day
Method in brief: as §3

Monochoria vaginalis = test: Paddy field treatment (Test Example 3); type: in vivo; details: paddy pot, submerged 4 cm, dropped on water surface 10th day after transplantation, 1 kg active ingredient per hectare, evaluated 21st day
Method in brief: as §3

Scirpus juncoides = test: Paddy field treatment (Test Example 3); type: in vivo; details: paddy pot, submerged 4 cm, dropped on water surface 10th day after transplantation, 1 kg active ingredient per hectare, evaluated 21st day
Method in brief: as §3

[13] = tested on: rice (Oryza sative, variety: Koshihikari); test: Paddy field treatment (Test Example 3), crop; type: in vivo, Oryza sativa; details: transplanted rice two-leaf period, water surface treatment 10th day after transplantation, 1 kg active ingredient per hectare, evaluated 21st day, lower index = higher safety
Method in brief: as §3

SMILES	Herbicidal activity Chenopodium album (Chenopodium album [1])	Herbicidal activity Digitaria adscendens (Digitaria adscendens [2])	Herbicidal activity Setaria viridis (Setaria viridis [3])	Herbicidal activity Stellaria media (Stellaria media [4])	Herbicidal activity Glycine max (soybean (Glycine max) [5])	Herbicidal activity Triticum aestivum [6]	Herbicidal activity Chenopodium album (Chenopodium album [7])	Herbicidal activity Digitaria adscendens (Digitaria adscendens [8])	Herbicidal activity Setaria viridis (Setaria viridis [9])	Herbicidal activity Stellaria media (Stellaria media [10])	Herbicidal activity Glycine max (soybean (Glycine max) [11])	Herbicidal activity Triticum aestivum [12]	Herbicidal activity Echinochloa spp. (Echinochloa spp.)	Herbicidal activity Ammannia multiflora (Ammannia multiflora)	Herbicidal activity Monochoria vaginalis (Monochoria vaginalis)	Herbicidal activity Scirpus juncoides (Scirpus juncoides)	Herbicidal activity Oryza sativa [13]
COC=C(Cn1nc(-c2c(Cl)cccc2Cl)c(Cl)c1C)C(=O)OC [Compound 23]	4 (herbicidal effect of not less than 70% by weight and less than 90% by weight)	4 (herbicidal effect of not less than 70% by weight and less than 90% by weight)	4 (herbicidal effect of not less than 70% by weight and less than 90% by weight)	5 (herbicidal effect of not less than 90% by weight)	0 (herbicidal effect of not less than 0% by weight and less than 10% by weight)	0 (herbicidal effect of not less than 0% by weight and less than 10% by weight)	4 (herbicidal effect of not less than 70% by weight and less than 90% by weight)	4 (herbicidal effect of not less than 70% by weight and less than 90% by weight)	4 (herbicidal effect of not less than 70% by weight and less than 90% by weight)	4 (herbicidal effect of not less than 70% by weight and less than 90% by weight)	0 (herbicidal effect of not less than 0% by weight and less than 10% by weight)	0 (herbicidal effect of not less than 0% by weight and less than 10% by weight)	3 (herbicidal effect of not less than 50% by weight and less than 70% by weight)	5 (herbicidal effect of not less than 90% by weight)	4 (herbicidal effect of not less than 70% by weight and less than 90% by weight)	3 (herbicidal effect of not less than 50% by weight and less than 70% by weight)	0 (herbicidal effect of not less than 0% by weight and less than 10% by weight)
COC=C(Cn1nc(-c2ccccc2)cc1C)C(=O)OC [Compound 2]	4 (herbicidal effect of not less than 70% by weight and less than 90% by weight)	4 (herbicidal effect of not less than 70% by weight and less than 90% by weight)	4 (herbicidal effect of not less than 70% by weight and less than 90% by weight)	4 (herbicidal effect of not less than 70% by weight and less than 90% by weight)	0 (herbicidal effect of not less than 0% by weight and less than 10% by weight)	0 (herbicidal effect of not less than 0% by weight and less than 10% by weight)	4 (herbicidal effect of not less than 70% by weight and less than 90% by weight)	4 (herbicidal effect of not less than 70% by weight and less than 90% by weight)	4 (herbicidal effect of not less than 70% by weight and less than 90% by weight)	4 (herbicidal effect of not less than 70% by weight and less than 90% by weight)	0 (herbicidal effect of not less than 0% by weight and less than 10% by weight)	0 (herbicidal effect of not less than 0% by weight and less than 10% by weight)	3 (herbicidal effect of not less than 50% by weight and less than 70% by weight)	3 (herbicidal effect of not less than 50% by weight and less than 70% by weight)	3 (herbicidal effect of not less than 50% by weight and less than 70% by weight)	3 (herbicidal effect of not less than 50% by weight and less than 70% by weight)	0 (herbicidal effect of not less than 0% by weight and less than 10% by weight)
COC=C(Cn1nc(-c2ccccc2)c(Br)c1SC)C(=O)OC [Compound 44]	4 (herbicidal effect of not less than 70% by weight and less than 90% by weight)	4 (herbicidal effect of not less than 70% by weight and less than 90% by weight)	4 (herbicidal effect of not less than 70% by weight and less than 90% by weight)	4 (herbicidal effect of not less than 70% by weight and less than 90% by weight)	0 (herbicidal effect of not less than 0% by weight and less than 10% by weight)	0 (herbicidal effect of not less than 0% by weight and less than 10% by weight)	4 (herbicidal effect of not less than 70% by weight and less than 90% by weight)	4 (herbicidal effect of not less than 70% by weight and less than 90% by weight)	4 (herbicidal effect of not less than 70% by weight and less than 90% by weight)	4 (herbicidal effect of not less than 70% by weight and less than 90% by weight)	0 (herbicidal effect of not less than 0% by weight and less than 10% by weight)	0 (herbicidal effect of not less than 0% by weight and less than 10% by weight)	3 (herbicidal effect of not less than 50% by weight and less than 70% by weight)	3 (herbicidal effect of not less than 50% by weight and less than 70% by weight)	3 (herbicidal effect of not less than 50% by weight and less than 70% by weight)	3 (herbicidal effect of not less than 50% by weight and less than 70% by weight)	0 (herbicidal effect of not less than 0% by weight and less than 10% by weight)
CO/C=C(/C(=O)OC)n1nc(-c2cccc(Cl)c2)c(Cl)c1C [Control, reference compound]	0 (herbicidal effect of not less than 0% by weight and less than 10% by weight)	0 (herbicidal effect of not less than 0% by weight and less than 10% by weight)	0 (herbicidal effect of not less than 0% by weight and less than 10% by weight)	0 (herbicidal effect of not less than 0% by weight and less than 10% by weight)	0 (herbicidal effect of not less than 0% by weight and less than 10% by weight)	0 (herbicidal effect of not less than 0% by weight and less than 10% by weight)	0 (herbicidal effect of not less than 0% by weight and less than 10% by weight)	0 (herbicidal effect of not less than 0% by weight and less than 10% by weight)	0 (herbicidal effect of not less than 0% by weight and less than 10% by weight)	0 (herbicidal effect of not less than 0% by weight and less than 10% by weight)	0 (herbicidal effect of not less than 0% by weight and less than 10% by weight)	0 (herbicidal effect of not less than 0% by weight and less than 10% by weight)	0 (herbicidal effect of not less than 0% by weight and less than 10% by weight)	0 (herbicidal effect of not less than 0% by weight and less than 10% by weight)	0 (herbicidal effect of not less than 0% by weight and less than 10% by weight)	0 (herbicidal effect of not less than 0% by weight and less than 10% by weight)	0 (herbicidal effect of not less than 0% by weight and less than 10% by weight)
